# Assays:
# Test in all cases: Test D pre-/postemergence plant response
# Type in all cases: in vivo
# [1] = tested on: johnsongrass (Sorghum halepense); details: Sorghum halepense, pre-emergence, Preemergence
# How it was run: (§1)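 Two application timings were run together: preemergence onto seeded loam–sand pots, and postemergence onto 1- to 4-leaf plants (2 to 18 cm) in peat/vermiculite medium with starter nutrients. Formulation was a non-phytotoxic solvent with surfactant. Ratings, 0 to 100, were made visually versus controls after 13 to 15 greenhouse days.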
# [2] = tested on: large (Lg) crabgrass (Digitaria sanguinalis); details: Digitaria sanguinalis, pre-emergence, Preemergence
# How it was run: as §1
# soybean (Glycine max) = details: Glycine max, pre-emergence, Preemergence
# How it was run: as §1
# [3] = tested on: blackgrass (Alopecurus myosuroides); details: Alopecurus myosuroides, pre-emergence, Preemergence
# How it was run: as §1
# [4] = tested on: winter wheat (Triticum aestivum); details: Triticum aestivum, pre-emergence, Preemergence
# How it was run: as §1
# corn (Zea mays) = details: Zea mays, pre-emergence, Preemergence
# How it was run: as §1
# [5] = tested on: barnyardgrass (Echinochloa crus-galli); details: Echinochloa crus-galli, pre-emergence, Preemergence
# How it was run: as §1
# [6] = tested on: galium (catchweed bedstraw, Galium aparine); details: Galium, pre-emergence, Preemergence
# How it was run: as §1
# [7] = tested on: pigweed (Amaranthus retroflexus); details: Amaranthus retroflexus, pre-emergence, Preemergence
# How it was run: as §1
smiles,measurement,setting,value
"N#Cc1cccc(Oc2ncc(Cl)cn2)c1-c1cc(C(F)(F)F)ccn1 [Compound 158, 5-chloro-2-[3-cyano-2-[4-(trifluoromethyl)-2-pyridinyl]phenoxy]pyrimidine]",pest or weed control at 125 g/ha,"[1]; 125 g ai/ha, read-out: Plant response rating (scale 0 to 100), Johnsongrass",40%
same,pest or weed control at 16 g/ha,"[1]; 16 g ai/ha, scale 0 to 100 (0 no effect, 100 complete control), read-out: Plant response rating, Johnsongrass",0%
same,pest or weed control at 31 g/ha,"[1]; 31 g ai/ha, scale 0 to 100 (0 no effect, 100 complete control), read-out: Plant response rating, Johnsongrass",0%
same,pest or weed control at 62 g/ha,"[1]; 62 g ai/ha, scale 0 to 100 (0 no effect, 100 complete control), read-out: Plant response rating, Johnsongrass",10%
same,pest or weed control at 125 g/ha,"[2]; 125 g ai/ha, read-out: Plant response rating (scale 0 to 100), Crabgrass, Large",100%
same,pest or weed control at 16 g/ha,"[2]; 16 g ai/ha, scale 0 to 100 (0 no effect, 100 complete control), read-out: Plant response rating, Crabgrass, Large",25%
same,pest or weed control at 31 g/ha,"[2]; 31 g ai/ha, scale 0 to 100 (0 no effect, 100 complete control), read-out: Plant response rating, Crabgrass, Large",90%
same,pest or weed control at 62 g/ha,"[2]; 62 g ai/ha, scale 0 to 100 (0 no effect, 100 complete control), read-out: Plant response rating, Crabgrass, Large",85%
same,plant injury at 125 g/ha,"soybean (Glycine max); 125 g ai/ha, read-out: Plant response rating (scale 0 to 100), Soybean",95%
same,plant injury at 16 g/ha,"soybean (Glycine max); 16 g ai/ha, scale 0 to 100 (0 no effect, 100 complete control), read-out: Plant response rating, Soybean",0%
same,plant injury at 31 g/ha,"soybean (Glycine max); 31 g ai/ha, scale 0 to 100 (0 no effect, 100 complete control), read-out: Plant response rating, Soybean",25%
same,plant injury at 62 g/ha,"soybean (Glycine max); 62 g ai/ha, scale 0 to 100 (0 no effect, 100 complete control), read-out: Plant response rating, Soybean",45%
same,pest or weed control at 125 g/ha,"[3]; 125 g ai/ha, read-out: Plant response rating (scale 0 to 100), Blackgrass",90%
same,pest or weed control at 16 g/ha,"[3]; 16 g ai/ha, scale 0 to 100 (0 no effect, 100 complete control), read-out: Plant response rating, Blackgrass",0%
same,pest or weed control at 31 g/ha,"[3]; 31 g ai/ha, scale 0 to 100 (0 no effect, 100 complete control), read-out: Plant response rating, Blackgrass",15%
same,pest or weed control at 62 g/ha,"[3]; 62 g ai/ha, scale 0 to 100 (0 no effect, 100 complete control), read-out: Plant response rating, Blackgrass",50%
same,plant injury at 125 g/ha,"[4]; 125 g ai/ha, read-out: Plant response rating (scale 0 to 100), Wheat",0%
same,plant injury at 16 g/ha,"[4]; 16 g ai/ha, scale 0 to 100 (0 no effect, 100 complete control), read-out: Plant response rating, Wheat",0%
same,plant injury at 31 g/ha,"[4]; 31 g ai/ha, scale 0 to 100 (0 no effect, 100 complete control), read-out: Plant response rating, Wheat",0%
same,plant injury at 62 g/ha,"[4]; 62 g ai/ha, scale 0 to 100 (0 no effect, 100 complete control), read-out: Plant response rating, Wheat",0%
same,plant injury at 125 g/ha,"corn (Zea mays); 125 g ai/ha, read-out: Plant response rating (scale 0 to 100), Corn",15%
same,"Corn plant response rating (crop injury, 0 = no effect, 100 = complete kill) at 16 g/ha","corn (Zea mays); 16 g ai/ha, scale 0 to 100 (0 no effect, 100 complete control)",0%
same,"Corn plant response rating (crop injury, 0 = no effect, 100 = complete kill) at 31 g/ha","corn (Zea mays); 31 g ai/ha, scale 0 to 100 (0 no effect, 100 complete control)",0%
same,"Corn plant response rating (crop injury, 0 = no effect, 100 = complete kill) at 62 g/ha","corn (Zea mays); 62 g ai/ha, scale 0 to 100 (0 no effect, 100 complete control)",5%
same,pest or weed control at 125 g/ha,"[5]; 125 g ai/ha, read-out: Plant response rating (scale 0 to 100), Barnyardgrass",20%
same,pest or weed control at 16 g/ha,"[5]; 16 g ai/ha, scale 0 to 100 (0 no effect, 100 complete control), read-out: Plant response rating, Barnyardgrass",0%
same,pest or weed control at 31 g/ha,"[5]; 31 g ai/ha, scale 0 to 100 (0 no effect, 100 complete control), read-out: Plant response rating, Barnyardgrass",5%
same,pest or weed control at 62 g/ha,"[5]; 62 g ai/ha, scale 0 to 100 (0 no effect, 100 complete control), read-out: Plant response rating, Barnyardgrass",35%
same,pest or weed control at 125 g/ha,"[6]; 125 g ai/ha, read-out: Plant response rating (scale 0 to 100), Galium",100%
same,pest or weed control at 16 g/ha,"[6]; 16 g ai/ha, scale 0 to 100 (0 no effect, 100 complete control), read-out: Plant response rating, Galium",0%
same,pest or weed control at 31 g/ha,"[6]; 31 g ai/ha, scale 0 to 100 (0 no effect, 100 complete control), read-out: Plant response rating, Galium",50%
same,pest or weed control at 62 g/ha,"[6]; 62 g ai/ha, scale 0 to 100 (0 no effect, 100 complete control), read-out: Plant response rating, Galium",100%
same,pest or weed control at 125 g/ha,"[7]; 125 g ai/ha, read-out: Plant response rating (scale 0 to 100), Pigweed",100%
same,pest or weed control at 16 g/ha,"[7]; 16 g ai/ha, scale 0 to 100 (0 no effect, 100 complete control), read-out: Plant response rating, Pigweed",70%
same,pest or weed control at 31 g/ha,"[7]; 31 g ai/ha, scale 0 to 100 (0 no effect, 100 complete control), read-out: Plant response rating, Pigweed",75%
same,pest or weed control at 62 g/ha,"[7]; 62 g ai/ha, scale 0 to 100 (0 no effect, 100 complete control), read-out: Plant response rating, Pigweed",100%

# Reference: patent publication US10131652B2, “Pyrimidinyloxy benzene derivatives as herbicides” (E. I. DU PONT DE NEMOURS AND COMPANY, priority 2014, dated 2018)
